Data: ChEMBL document CHEMBL3881527, “Multi-functional small molecules as anti-proliferative agents” (2008)
Each block holds one compound with its values, some of them ahead of it.

Columns and labels:
[1] = Cytotoxicity against human CFPAC cells assessed as growth inhibition by measuring ATP levels after 72 hrs by ATPlite assay; format: functional, cell-based
[2] = target: Epidermal growth factor receptor (Homo sapiens, UniProt P00533); experiment: Inhibition of N-terminal GST-fused human EGFR (His672 to Ala1210 residues) expressed in baculovirus expression system using biotinylated PTP1B at Tyr66 as substrate preincubated for 5 mins followed by substrate addition measured after 30 mins by DELFIA
[3] = target: Cyclin-dependent kinase 2/cyclin E1 (Homo sapiens, UniProt P24941); experiment: Inhibition of C-terminal His6-tagged full length CDK2/N-terminal GST-tagged recombinant full length human cyclin E1 expressed in baculovirus infected SF21 insect cells using histone H1 as substrate after 2 hrs in presence of [gamma-33P]-ATP
[4] = target: Proto-oncogene tyrosine-protein kinase Src (Homo sapiens, UniProt P12931); experiment: (§1) Inhibition of human N-terminal GST-tagged full length human Src (Met1 to Leu536 residues) expressed in baculovirus expression system assessed as decrease in biotin signal transduction protein phosphorylation at Tyr160 preincubated for 5 mins followed by substrate addition measured after 30 mins by DELFIA method
[5] = target: Platelet-derived growth factor receptor beta (Homo sapiens, UniProt P09619); experiment: Inhibition of N-terminal GST-His6-thrombin cleavage site-fused human PDGFRbeta (Arg561 to Leu1106 residues) assessed as decrease in biotinylated FLT3 phosphorylation at Tyr589 preincubated for 5 mins followed by substrate addition measured after 30 mins by DELFIA method
[6] = target: Tyrosine-protein kinase ABL1 (Homo sapiens, UniProt P00519); experiment: as §1, with “GST-tagged” for “GST-tagged full length”, “Abl1 (Pro118” for “Src (Met1”, “Ser553” for “Leu536”
Sequence of Tyrosine-protein kinase ABL1 (P00519 whole entry): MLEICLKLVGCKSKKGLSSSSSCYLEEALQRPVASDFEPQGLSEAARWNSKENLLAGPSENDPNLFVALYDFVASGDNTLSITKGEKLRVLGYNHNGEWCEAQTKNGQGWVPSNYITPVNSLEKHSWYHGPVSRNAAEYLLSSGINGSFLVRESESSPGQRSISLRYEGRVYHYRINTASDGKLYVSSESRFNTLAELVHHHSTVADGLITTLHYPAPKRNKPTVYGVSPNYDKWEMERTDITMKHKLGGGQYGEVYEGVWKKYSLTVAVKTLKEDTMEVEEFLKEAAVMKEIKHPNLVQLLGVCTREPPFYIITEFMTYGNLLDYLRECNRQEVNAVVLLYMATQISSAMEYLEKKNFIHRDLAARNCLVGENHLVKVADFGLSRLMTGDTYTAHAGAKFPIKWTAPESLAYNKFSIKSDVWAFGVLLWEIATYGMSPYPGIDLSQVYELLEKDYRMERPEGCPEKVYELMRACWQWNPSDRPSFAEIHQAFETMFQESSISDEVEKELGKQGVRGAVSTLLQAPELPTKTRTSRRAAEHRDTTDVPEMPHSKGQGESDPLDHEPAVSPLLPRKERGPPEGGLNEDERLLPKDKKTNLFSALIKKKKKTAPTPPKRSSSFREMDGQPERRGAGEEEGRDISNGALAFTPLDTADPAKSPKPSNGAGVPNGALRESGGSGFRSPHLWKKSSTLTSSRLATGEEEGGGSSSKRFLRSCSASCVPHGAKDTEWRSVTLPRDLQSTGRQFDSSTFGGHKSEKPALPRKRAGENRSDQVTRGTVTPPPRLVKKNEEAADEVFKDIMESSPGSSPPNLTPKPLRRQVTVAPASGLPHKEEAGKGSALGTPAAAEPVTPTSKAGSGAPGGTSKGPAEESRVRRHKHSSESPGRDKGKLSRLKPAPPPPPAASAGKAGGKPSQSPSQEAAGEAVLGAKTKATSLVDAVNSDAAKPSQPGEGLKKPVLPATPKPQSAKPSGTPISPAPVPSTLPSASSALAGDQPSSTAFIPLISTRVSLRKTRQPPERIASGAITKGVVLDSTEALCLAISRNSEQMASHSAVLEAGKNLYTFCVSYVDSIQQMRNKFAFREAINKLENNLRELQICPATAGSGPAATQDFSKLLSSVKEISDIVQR

[7] = target: Mast/stem cell growth factor receptor Kit (Homo sapiens, UniProt P10721); experiment: Inhibition of human N-terminal GST-tagged human c-Kit (Thr544 to Val976 residues) expressed in baculovirus expression system assessed as decrease in biotinylated KDR phosphorylation at Tyr996 preincubated for 5 mins followed by substrate addition measured after 30 mins by DELFIA method
Sequence of Mast/stem cell growth factor receptor Kit (P10721 whole entry): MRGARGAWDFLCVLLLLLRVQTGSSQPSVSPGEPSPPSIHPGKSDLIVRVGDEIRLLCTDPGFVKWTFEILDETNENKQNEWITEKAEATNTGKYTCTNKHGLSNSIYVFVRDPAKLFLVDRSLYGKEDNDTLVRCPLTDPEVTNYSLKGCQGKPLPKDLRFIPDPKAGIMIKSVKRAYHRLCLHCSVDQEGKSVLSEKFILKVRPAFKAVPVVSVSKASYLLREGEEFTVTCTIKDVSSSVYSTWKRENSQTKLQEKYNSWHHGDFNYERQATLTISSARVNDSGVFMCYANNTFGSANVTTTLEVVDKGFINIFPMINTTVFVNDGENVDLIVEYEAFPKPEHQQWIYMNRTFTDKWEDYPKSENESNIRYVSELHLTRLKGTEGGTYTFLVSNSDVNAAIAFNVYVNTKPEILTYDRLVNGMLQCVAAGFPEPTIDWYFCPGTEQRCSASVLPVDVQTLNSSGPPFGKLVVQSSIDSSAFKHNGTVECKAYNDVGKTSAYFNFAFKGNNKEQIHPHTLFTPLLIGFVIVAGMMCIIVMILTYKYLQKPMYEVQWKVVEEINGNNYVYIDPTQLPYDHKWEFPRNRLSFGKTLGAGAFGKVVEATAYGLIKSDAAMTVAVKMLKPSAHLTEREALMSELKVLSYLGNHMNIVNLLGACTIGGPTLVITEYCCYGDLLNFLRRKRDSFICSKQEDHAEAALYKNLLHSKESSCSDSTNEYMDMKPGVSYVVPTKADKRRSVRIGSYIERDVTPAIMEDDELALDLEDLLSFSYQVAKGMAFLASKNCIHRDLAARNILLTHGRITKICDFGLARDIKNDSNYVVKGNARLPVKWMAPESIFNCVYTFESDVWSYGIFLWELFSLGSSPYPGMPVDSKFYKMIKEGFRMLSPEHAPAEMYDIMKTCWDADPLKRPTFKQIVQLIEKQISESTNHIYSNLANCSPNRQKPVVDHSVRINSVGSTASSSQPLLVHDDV

[8] = Chemical stability in diluted solution; format: physicochemical
CDK6/cyclin D3 = CDK6/cyclin D3 (Homo sapiens, UniProt Q00534); experiment: Inhibition of N-terminal His6-tagged full length human CDK6/N-terminal GST-tagged recombinant full length human cyclin D3 expressed in baculovirus infected SF21 insect cells using histone H1 as substrate after 2 hrs in presence of [gamma-33P]-ATP
[9] = target: Vascular endothelial growth factor receptor 2 (Homo sapiens, UniProt P35968); experiment: Inhibition of N-terminal GST-His6-thrombin cleavage site-fused human VEGFR2 (Asp805 to Val1356 residues) expressed in baculovirus expression system using biotinylated gastrin precursor at Tyr87 as substrate preincubated for 5 mins followed by substrate addition measured after 30 mins by DELFIA method
Sequence of Vascular endothelial growth factor receptor 2 (P35968 whole entry, the tested form may be a part): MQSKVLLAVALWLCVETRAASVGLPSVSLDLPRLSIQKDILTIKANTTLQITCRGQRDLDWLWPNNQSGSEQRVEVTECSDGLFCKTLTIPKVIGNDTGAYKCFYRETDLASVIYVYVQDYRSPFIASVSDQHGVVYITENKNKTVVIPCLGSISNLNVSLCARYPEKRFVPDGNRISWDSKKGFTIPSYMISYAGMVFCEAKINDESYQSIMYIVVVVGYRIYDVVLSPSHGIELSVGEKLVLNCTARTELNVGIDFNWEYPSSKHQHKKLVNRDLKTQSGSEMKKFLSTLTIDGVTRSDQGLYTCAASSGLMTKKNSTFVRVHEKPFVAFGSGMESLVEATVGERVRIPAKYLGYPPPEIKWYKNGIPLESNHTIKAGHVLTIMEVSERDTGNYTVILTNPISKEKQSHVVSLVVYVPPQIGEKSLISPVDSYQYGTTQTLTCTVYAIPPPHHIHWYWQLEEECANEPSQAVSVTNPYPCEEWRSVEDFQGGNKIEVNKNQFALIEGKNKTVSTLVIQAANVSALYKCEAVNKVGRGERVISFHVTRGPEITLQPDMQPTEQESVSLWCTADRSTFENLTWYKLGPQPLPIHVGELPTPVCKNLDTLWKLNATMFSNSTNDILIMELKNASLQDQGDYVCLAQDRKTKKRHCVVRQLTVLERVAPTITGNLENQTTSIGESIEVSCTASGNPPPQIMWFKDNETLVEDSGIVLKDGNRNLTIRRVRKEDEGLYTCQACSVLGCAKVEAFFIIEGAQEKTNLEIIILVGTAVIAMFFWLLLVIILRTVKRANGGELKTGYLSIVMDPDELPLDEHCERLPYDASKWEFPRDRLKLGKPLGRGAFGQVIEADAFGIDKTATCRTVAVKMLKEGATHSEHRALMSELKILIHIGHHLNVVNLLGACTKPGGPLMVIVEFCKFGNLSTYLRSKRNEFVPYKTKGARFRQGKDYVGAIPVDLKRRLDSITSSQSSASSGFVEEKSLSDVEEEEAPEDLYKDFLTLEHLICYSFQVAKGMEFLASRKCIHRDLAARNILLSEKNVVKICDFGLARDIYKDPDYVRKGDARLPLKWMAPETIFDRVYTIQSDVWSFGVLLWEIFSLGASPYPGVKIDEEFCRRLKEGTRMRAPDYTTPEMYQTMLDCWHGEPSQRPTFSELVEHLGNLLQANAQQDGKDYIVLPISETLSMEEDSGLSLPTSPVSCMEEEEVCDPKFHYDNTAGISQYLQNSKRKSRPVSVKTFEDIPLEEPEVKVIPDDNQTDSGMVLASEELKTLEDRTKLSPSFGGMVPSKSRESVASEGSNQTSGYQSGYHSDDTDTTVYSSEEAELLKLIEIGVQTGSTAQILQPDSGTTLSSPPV

[10] = target: Receptor tyrosine-protein kinase erbB-2 (Homo sapiens, UniProt P04626); experiment: Inhibition of N-terminal GST-tagged human HER2 (Lys676 to Val1255 residues) expressed in baculovirus expression system using biotinylated FLT3 at Tyr589 as substrate preincubated for 5 mins followed by substrate addition measured after 30 mins by DELFIA method
Sequence of Receptor tyrosine-protein kinase erbB-2 (P04626 whole entry): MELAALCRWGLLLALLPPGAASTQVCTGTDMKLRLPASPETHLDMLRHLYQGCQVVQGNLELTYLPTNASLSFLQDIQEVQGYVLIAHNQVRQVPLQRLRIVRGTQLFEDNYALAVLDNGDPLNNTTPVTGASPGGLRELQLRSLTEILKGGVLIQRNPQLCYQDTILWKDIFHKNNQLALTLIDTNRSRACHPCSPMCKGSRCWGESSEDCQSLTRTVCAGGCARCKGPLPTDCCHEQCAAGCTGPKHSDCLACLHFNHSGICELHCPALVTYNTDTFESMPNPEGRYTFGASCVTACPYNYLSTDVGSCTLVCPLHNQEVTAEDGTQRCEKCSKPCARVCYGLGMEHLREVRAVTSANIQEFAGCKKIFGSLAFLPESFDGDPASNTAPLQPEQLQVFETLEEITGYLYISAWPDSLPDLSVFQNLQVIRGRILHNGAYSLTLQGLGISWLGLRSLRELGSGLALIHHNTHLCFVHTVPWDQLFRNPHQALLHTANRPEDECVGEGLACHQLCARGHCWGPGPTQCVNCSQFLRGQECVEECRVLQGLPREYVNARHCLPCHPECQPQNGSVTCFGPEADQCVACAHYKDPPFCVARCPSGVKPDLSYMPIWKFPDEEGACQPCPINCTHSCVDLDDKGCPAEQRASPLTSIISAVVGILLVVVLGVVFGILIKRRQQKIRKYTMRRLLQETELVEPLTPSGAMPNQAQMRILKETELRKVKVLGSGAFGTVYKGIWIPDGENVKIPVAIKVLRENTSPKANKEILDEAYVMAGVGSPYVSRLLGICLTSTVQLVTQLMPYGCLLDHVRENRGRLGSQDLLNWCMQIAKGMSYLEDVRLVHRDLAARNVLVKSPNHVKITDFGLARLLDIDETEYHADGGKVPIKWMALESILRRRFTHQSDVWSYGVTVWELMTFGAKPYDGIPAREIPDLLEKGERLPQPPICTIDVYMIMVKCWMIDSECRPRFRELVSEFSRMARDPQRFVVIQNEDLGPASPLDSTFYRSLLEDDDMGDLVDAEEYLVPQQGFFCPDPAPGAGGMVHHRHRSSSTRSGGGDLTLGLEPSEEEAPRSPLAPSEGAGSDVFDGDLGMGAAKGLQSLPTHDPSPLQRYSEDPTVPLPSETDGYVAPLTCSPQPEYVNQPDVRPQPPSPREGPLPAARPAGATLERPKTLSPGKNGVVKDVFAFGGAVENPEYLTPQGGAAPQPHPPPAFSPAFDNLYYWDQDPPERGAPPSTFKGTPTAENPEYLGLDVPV

HCT-116 = experiment: Induction of apoptosis in human HCT116 cells assessed as increase in caspase3/7 activity after 24 hrs; format: functional, cell-based; conditions: HCT-116, 24 h
SK-BR-3 = experiment: Induction of apoptosis in human SKBR3 cells assessed as increase in caspase3/7 activity after 24 hrs; format: functional, cell-based; conditions: SK-BR-3, 24 h

SMILES: COc1cc2ncnc(N[C@H](C)c3ccccc3)c2cc1OCCCCCC(=O)NO
IC50 [1]: 1000 to 10000 nM

IC50 [2]: ≤ 100 nM
SMILES: COc1cc2ncnc(Nc3ccc(F)c(Cl)c3)c2cc1OCCOc1ccc(/C=C/C(=O)NO)cc1
IC50 [1]: ≥ 10000 nM

IC50 [3]: ≤ 100 nM
SMILES: CC(C)(C)c1cnc(CSc2cnc(NC(=O)Cc3ccc(OCCCCC(=O)NO)cc3)s2)o1

IC50 [4]: ≤ 100 nM | IC50 [5]: ≤ 100 nM | IC50 [6]: ≤ 100 nM
SMILES: Cc1nc(Nc2ncc(C(=O)Nc3c(C)cccc3Cl)s2)cc(N2CCN(CCCCC(=O)NO)CC2)n1

IC50 [4]: ≤ 100 nM | IC50 [5]: ≤ 100 nM | IC50 [7]: ≤ 100 nM | IC50 [6]: ≤ 100 nM
SMILES: Cc1nc(NCCCCCC(=O)NO)cc(Nc2ncc(C(=O)Nc3c(C)cccc3Cl)s2)n1

Stability [8]: > 12 h
SMILES: C#Cc1cccc(Nc2ncnc3cc(OC)c(OCCCCCCC(=O)N[O-])cc23)c1.[Na+]

IC50 [3]: ≤ 100 nM | IC50 (CDK6/cyclin D3): 100 to 1000 nM
SMILES: CC(C)(C)c1cnc(CSc2cnc(NC(=O)CCCCC(=O)NO)s2)o1

IC50 [9]: ≤ 100 nM | IC50 [5]: 100 to 1000 nM | IC50 [7]: ≤ 100 nM
SMILES: O=C(CCCCCCC(=O)NCc1cc(Oc2ccc(NC(=O)Nc3ccc(Cl)c(C(F)(F)F)c3)cc2)ccn1)NO

IC50 [3]: ≤ 100 nM
SMILES: CC(C)(C)c1cnc(CSc2cnc(NC(=O)CCCCCCC(=O)NO)s2)o1

IC50 [3]: ≤ 100 nM | IC50 (CDK6/cyclin D3): 100 to 1000 nM
SMILES: CC(C)(C)c1cnc(CSc2cnc(NC(=O)CCCC(=O)NO)s2)o1

IC50 [4]: ≤ 100 nM | IC50 [5]: ≤ 100 nM | IC50 [7]: ≤ 100 nM | IC50 [6]: ≤ 100 nM
SMILES: Cc1nc(Nc2ncc(C(=O)Nc3c(C)cccc3Cl)s2)cc(N2CCN(CCCCCCC(=O)NO)CC2)n1

IC50 [10]: ≤ 100 nM
SMILES: COCCOc1cc2ncnc(Nc3ccc(F)c(Cl)c3)c2cc1NC(=O)CCCCCCC(=O)NO
IC50 [1]: 1000 to 10000 nM

IC50 (HCT-116): > 20000 nM | IC50 (SK-BR-3): > 20000 nM
SMILES: C#Cc1cccc(Nc2ncnc3cc(OCCOC)c(OCCOC)cc23)c1 [ERLOTINIB]

IC50 [3]: ≤ 100 nM
SMILES: CC(C)(C)c1cnc(CSc2cnc(NC(=O)Cc3ccc(OCCCC(=O)NO)cc3)s2)o1

IC50 [4]: ≤ 100 nM | IC50 [5]: ≤ 100 nM | IC50 [7]: ≤ 100 nM | IC50 [6]: ≤ 100 nM
SMILES: Cc1nc(NCCCCCCC(=O)NO)cc(Nc2ncc(C(=O)Nc3c(C)cccc3Cl)s2)n1

IC50 [10]: 100 to 1000 nM
SMILES: O=C(CCCCCCOc1ccc2ncnc(Nc3ccc(F)c(Cl)c3)c2c1)NO
IC50 [1]: 100 to 1000 nM

IC50 [4]: ≤ 100 nM | IC50 [5]: ≤ 100 nM | IC50 [7]: ≤ 100 nM | IC50 [6]: ≤ 100 nM
SMILES: Cc1nc(Nc2ncc(C(=O)Nc3c(C)cccc3Cl)s2)cc(N2CCN(CCCCCC(=O)NO)CC2)n1

IC50 [9]: 100 to 1000 nM | IC50 [5]: 100 to 1000 nM | IC50 [7]: ≤ 100 nM
SMILES: O=C(CCCCCCCNC(=O)c1cc(Oc2ccc(NC(=O)Nc3ccc(Cl)c(C(F)(F)F)c3)cc2)ccn1)NO

IC50 [9]: ≤ 100 nM | IC50 [5]: 100 to 1000 nM | IC50 [7]: ≤ 100 nM
SMILES: O=C(CCCCC(=O)NCc1cc(Oc2ccc(NC(=O)Nc3ccc(Cl)c(C(F)(F)F)c3)cc2)ccn1)NO

IC50 [10]: 100 to 1000 nM
SMILES: COc1cc2ncnc(Nc3ccc(F)c(Cl)c3)c2cc1NC(=O)CCCCCCC(=O)NO
IC50 [1]: 1000 to 10000 nM

SMILES: COc1cc2ncnc(NCc3ccccc3)c2cc1OCCCCCCC(=O)NO
IC50 [1]: 1000 to 10000 nM

IC50 [3]: ≤ 100 nM | IC50 (CDK6/cyclin D3): 100 to 1000 nM
SMILES: CC(C)(C)c1cnc(CSc2cnc(NC(=O)CCCCCC(=O)NO)s2)o1
